One assay deals with CDK2/CyclinE (Homo sapiens, UniProt P24941). The experiment in a line: CDK2/CyclinE Flashplate assay, 96-well format, biotinylated-Rb peptide substrate. It counts as biochemical. On the procedure: This is a CDK2/CyclinE kinase assay in a 96-well Streptavidin-coated Flashplate with a biotinylated-Rb peptide substrate.
Each point is tested in duplicate
Biotinylated-Rb: Biotin-[…]-OH
• 1. Prepare substrate: 1 mg/ml solution made fresh in PBS. • 2. Add 4 μg per well to the Flashplate. • 3. Incubate for 2 hours at RT. • 4. From 10 mM inhibitor stocks in DMSO, make 1 mM, 300 μM, 100 μM, 30 μM and 10 μM series of dilution in DMSO. • 5. Was the Flashplate 3 times with 300 μl PBS to remove unbound peptide substrate. • 6. Add the CDK2/CyclinE kinase: 200 ng per well, in a volume of 90 μl in kinase buffer (except for “no enzyme” control wells). • 7. Add 1 μl per well of inhibitor to test 10 μM, 3 μM, 1 μM, 0.3 μM and 0.1 μM in final concentration per 100 μl in each well. • 8. Shake gently the Flashplate 1 minute. • 9. Incubate 30 minutes on wet ice. • 10. Initiate the reaction with 10 μl kinase buffer containing 1 μM final cold ATP and 1 μCi final ^33P-ATP per well. • 11. Shake gently the Flashplate 1 minute. • 12. Incubate 45 minutes at RT (no shaking). • 13. Wash the Flashplate 3 times with 300 μl PBS
14. Count to detect the incorporation of ^33P-ATP by the kinase to the Rb phosphorylation site.

The target in a further assay is CDK4/CyclinD1 (Homo sapiens, UniProt P11802). As to the kind of experiment: CDK4/CyclinD1 Flashplate assay, 96-well format, biotinylated-Rb peptide substrate. In kind it is biochemical. The gist of the method: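 Biotinylated Rb peptide bound to streptavidin Flashplate; CDK4/CyclinD1 (70 ng/well) preincubated 30 min on ice with compound at 10, 3, 1, 0.3 and 0.1 μM final. Reaction with 1 μM cold ATP plus 33P-ATP for 45 min at RT; incorporated 33P counted, duplicates.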

Results on 28 compounds are retold here after patent US20050014811A1, “Substituted benzimidazole compounds and their use for the treatment of cancer” (Aventis Pharma S.A., priority 2001, published 2005).

Each structure is given as a SMILES string.

Chain of CDK4/CyclinD1 (P11802 whole entry, species assumed): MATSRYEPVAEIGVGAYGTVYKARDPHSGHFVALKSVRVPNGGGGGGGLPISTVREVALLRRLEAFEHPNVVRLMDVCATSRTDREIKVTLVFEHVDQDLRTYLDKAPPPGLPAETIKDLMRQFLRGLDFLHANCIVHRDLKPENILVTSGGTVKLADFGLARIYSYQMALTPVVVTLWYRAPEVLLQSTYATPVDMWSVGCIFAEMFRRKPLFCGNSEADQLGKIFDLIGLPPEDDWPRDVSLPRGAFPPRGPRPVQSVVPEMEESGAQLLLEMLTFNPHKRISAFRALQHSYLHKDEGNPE
Chain of CDK4/CyclinD1 (P24385 whole entry partner, species assumed): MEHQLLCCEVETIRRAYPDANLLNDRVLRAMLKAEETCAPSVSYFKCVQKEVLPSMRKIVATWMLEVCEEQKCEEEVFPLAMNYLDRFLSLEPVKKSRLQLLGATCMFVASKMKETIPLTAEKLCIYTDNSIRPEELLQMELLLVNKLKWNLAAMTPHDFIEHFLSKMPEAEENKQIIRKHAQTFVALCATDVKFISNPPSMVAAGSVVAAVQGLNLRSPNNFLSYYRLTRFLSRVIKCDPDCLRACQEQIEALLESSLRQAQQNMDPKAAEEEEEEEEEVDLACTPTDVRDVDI

The IC50 is the midpoint of a concentration-inhibition curve. For the compound `COC(=O)Nc1nc2cc(OS(=O)(=O)c3ccc(NC(C)C)cc3)ccc2[nH]1` [Example 10, Methyl-5-(4-isopropylaminophenylsulfonyloxy) benzimidazole-2-carbamate], the IC50 at CDK2/CyclinE is 800 nM; at CDK4/CyclinD1, 700 nM.
Turning to `COC(=O)Nc1nc2cc(OS(=O)(=O)c3cccs3)ccc2[nH]1` [Example 62-b, Thiophene-2-sulfonic acid 2-methoxycarbonylamino-1H-benzoimidazol-5-yl ester], the IC50 at CDK2/CyclinE was 200 nM; on CDK4/CyclinD1, 440 nM.
By inhibition is commonly meant the change of the read-out against control, counted positive when it falls. Regarding `O=C(NCc1ccccc1Cl)Nc1nc2cc(OS(=O)(=O)c3ccc(NC4CCCC4)cc3)ccc2[nH]1` [Example 58-g, 4-Cyclopentylamino-benzenesulfonic acid 2-[3-(2-chloro-benzyl)-ureido]-1H-benzoimidazol-5-yl ester], the 50% inhibitory concentration (IC50) against CDK2/CyclinE is 1000 nM. Moreover, the inhibition at 10 µM at CDK4/CyclinD1 was found to be 69%.
For the compound `COC(=O)Nc1nc2cc(OS(=O)(=O)c3ccc(N)cc3)ccc2[nH]1` [Example 16, Methyl-5-(4-aminophenylsulfonyloxy)benzimidazole-2-carbamate], the IC50 against CDK2/CyclinE was 1800 nM; on CDK4/CyclinD1 it was 370 nM.
For the compound `O=C(NCCO)Nc1nc2cc(OS(=O)(=O)c3ccc(-n4ccnc4)cc3)ccc2[nH]1` [Example 57-e, 4-Imidazol-1-yl-benzenesulfonic acid 2-[3-(2-hydroxy-ethyl)-ureido]-1H-benzoimidazol-5-yl ester], the IC50 against CDK2/CyclinE was determined as 300 nM. Besides, the inhibition at 10 µM against CDK4/CyclinD1 amounted to 90%.
As to `COc1ccc(Nc2nc3cc(OS(=O)(=O)c4ccc(NC5CCCC5)cc4)ccc3[nH]2)cc1` [Example 70-d, 4-Cyclopentylamino-benzenesulfonic acid 2-(4-methoxy-phenylamino)-1H-benzoimidazol-5-yl ester], the IC50 on CDK2/CyclinE came out at 300 nM; against CDK4/CyclinD1, 650 nM.
As to `COC(=O)Nc1nc2cc(OS(=O)(=O)c3ccc(NCc4ccccn4)cc3)ccc2[nH]1` [Example 5, Methyl-5-(4-[2-pyridylmethyl]aminophenylsulfonyloxy) benzimidazole-2-carbamate], the half-maximal inhibitory concentration (IC50) against CDK2/CyclinE came to 2200 nM; against CDK4/CyclinD1, 1120 nM.
`O=C(NCCCN1CCCC1=O)Nc1nc2cc(OS(=O)(=O)c3ccc(NCC4CCCO4)cc3)ccc2[nH]1` (stereo not drawn) [Example 59-p, 4-[(Tetrahydro-furan-2-ylmethyl)-amino]-benzenesulfonic acid 2-{3-[3-(2-oxo-pyrrolidin-1-yl)-propyl]-ureido}-1H-benzoimidazol-5-yl ester]: the IC50 on CDK2/CyclinE amounted to 17 nM; on CDK4/CyclinD1 it was 180 nM.
In the case of `COCCNC(=O)Nc1nc2cc(OS(=O)(=O)c3ccc(NC4CCCC4)cc3)ccc2[nH]1` [Example 48, 4-Cyclopentylamino-benzenesulfonic acid 2-[3-(2-methoxy-ethyl)-ureido]-1H-benzoimidazol-5-yl ester], the IC50 on CDK2/CyclinE is 40 nM; against CDK4/CyclinD1, 300 nM.
Compound `O=C(Nc1nc2cc(OS(=O)(=O)c3ccc(-n4ccnc4)cc3)ccc2[nH]1)N1CCC1` [Example 57-i, 4-Imidazol-1-yl-benzenesulfonic acid 2-[(azetidine-1-carbonyl)-amino]-1H-benzoimidazol-5-yl ester] registered an IC50 against CDK2/CyclinE of 5200 nM. This compound also gave an inhibition at 10 µM against CDK4/CyclinD1 of 27%.
Turning to `CCN(CC)CCNc1ccc(S(=O)(=O)Oc2ccc3[nH]c(NC(=O)OC)nc3c2)cc1` [Example 17, Methyl-5-(4-[2-diethylaminoethyl]aminophenyl-sulfonyloxy) benzimidazole-2-carbamate], the IC50 on CDK2/CyclinE was found to be 2000 nM; on CDK4/CyclinD1 it was 6300 nM.
Regarding `COC(=O)[C@@H]1CCCN1C(=O)Nc1nc2cc(OS(=O)(=O)c3ccc(NC4CCCC4)cc3)ccc2[nH]1` [Example 58-r, 1-[5-(4-Cyclopentylamino-benzenesulfonyloxy)-1H-benzoimidazol-2S-yl-carbamoyl]-pyrrolidine-2-carboxylic acid methyl ester], half-maximal inhibition against CDK2/CyclinE (IC50) required 20 nM. The inhibition at 10 µM against CDK4/CyclinD1 amounted to 80%.
Take `O=C(Nc1nc2cc(OS(=O)(=O)c3ccc(NC4CCCC4)cc3)ccc2[nH]1)NC1CCCCC1` [Example 58-b, 4-Cyclopentylamino-benzenesulfonic acid 2-(3-cyclohexyl-ureido)-1H-benzoimidazol-5-yl ester]: half-maximal inhibition against CDK2/CyclinE (IC50) required 900 nM. Moreover, at CDK4/CyclinD1, the inhibition at 10 µM came out at 70%.
Turning to `CCCCNC(=O)Nc1nc2cc(OS(=O)(=O)c3ccc(NC4CCCC4)cc3)ccc2[nH]1` [Example 35, 4-Cyclopentylamino-benzenesulfonic acid 2-(3-butyl-ureido)-1H-benzoimidazol-5-yl ester], the IC50 was 120 nM against CDK2/CyclinE and 1100 nM against CDK4/CyclinD1.
The matching figures for `CN1CCN(c2ccc(Nc3nc4cc(OS(=O)(=O)c5ccc(NC6CCCC6)cc5)ccc4[nH]3)cc2)CC1` [Example 70-h]: 250 nM and 140 nM.
Regarding `O=C(Nc1nc2cc(OS(=O)(=O)c3ccc(-n4ccnc4)cc3)ccc2[nH]1)NC1CCCCC1` [Example 57-b, 4-Imidazol-1-yl-benzenesulfonic acid 2-(3-cyclohexyl-ureido)-1H-benzoimidazol-5-yl ester], on CDK2/CyclinE, the IC50 was determined as 1900 nM. On CDK4/CyclinD1, this compound gave an inhibition at 10 µM of 51%.
With `O=C(Nc1nc2cc(OS(=O)(=O)c3ccc(NC4CCCC4)cc3)ccc2[nH]1)C1CC1` [Example 27, 4-Cyclopentylamino-benzenesulfonic acid 2-(cyclopropanecarbonyl-amino)-1H-benzoimidazol-5-yl ester], the IC50 worked out at 42 nM against CDK2/CyclinE and 600 nM against CDK4/CyclinD1.
In turn, `CCOC(=O)c1cccc(Nc2nc3cc(OS(=O)(=O)c4ccc(NC5CCCC5)cc4)ccc3[nH]2)c1` [Example 70-g, 3-[5-(4-Cyclopentylamino-benzenesulfonyloxy)-1H-benzoimidazol-2-ylamino]-benzoic acid ethyl ester] displayed an IC50 against CDK2/CyclinE of 1500 nM.
The same measure, in the same setting: in the case of `COC(=O)Nc1nc2cc(OS(=O)(=O)c3ccsc3C(=O)OC)ccc2[nH]1` [Example 62-j, 3-(2-Methoxycarbonylamino-1H-benzoimidazol-5-yloxysulfonyl)-thiophene-2-carboxylic acid methyl ester] it was 1500 nM.
On to `COC(=O)Nc1nc2cc(OS(=O)(=O)c3cccc(OC(F)(F)F)c3)ccc2[nH]1` [Example 62-f, 3-Trifluoromethoxy-benzenesulfonic acid 2-methoxycarbonylamino-1H-benzoimidazol-5-yl ester], for which, on CDK2/CyclinE, the IC50 was 1500 nM.
`CN(C)CCNC(=O)Nc1nc2cc(OS(=O)(=O)c3ccc(NC4CCCC4)cc3)ccc2[nH]1` [Example 44, 4-Cyclopentylamino-benzenesulfonic acid 2-[3-(2-dimethylamino-ethyl)-ureido]-1H-benzoimidazol-5-yl ester] had an IC50 against CDK2/CyclinE of 130 nM.
The same measure, in the same setting: the same measure for `COC(=O)Nc1nc2cc(OS(=O)(=O)c3ccccc3OC(F)(F)F)ccc2[nH]1` [Example 62-g, 2-Trifluoromethoxy-benzenesulfonic acid 2-methoxycarbonylamino-1H-benzoimidazol-5-yl ester]: 1000 nM.
At CDK2/CyclinE, `O=C(NCc1cccnc1)Nc1nc2cc(OS(=O)(=O)c3ccc(-n4ccnc4)cc3)ccc2[nH]1` [Example 57-j, 4-Imidazol-1-yl-benzenesulfonic acid 2-(3-pyridin-3-ylmethyl-ureido)-1H-benzoimidazol-5-yl ester] showed an IC50 of 100 nM.
In the case of `COC(=O)Nc1nc2cc(OS(=O)(=O)c3ccc(OCC(=O)NCc4ccco4)cc3)ccc2[nH]1` [Example 66-c, 4-{[(furan-2-ylmethyl)-carbamoyl]-methoxy}-benzenesulfonic acid 2-methoxycarbonylamino-1H-benzoimidazol-5-yl ester], at CDK2/CyclinE, the IC50 amounted to 1000 nM.
Consider `O=C(NCc1ccccc1F)Nc1nc2cc(OS(=O)(=O)c3ccc(NC4CCCC4)cc3)ccc2[nH]1` [Example 58-h, 4-Cyclopentylamino-benzenesulfonic acid 2-[3-(2-fluoro-benzyl)-ureido]-1H-benzoimidazol-5-yl ester], for which the IC50 on CDK2/CyclinE was 100 nM.
On the same count and under the same terms, in the case of `COC(=O)Nc1nc2cc(OS(=O)(=O)c3ccc(-c4ccon4)s3)ccc2[nH]1` [Example 62-c, 5-Isoxazol-3-yl-thiophene-2-sulfonic acid 2-methoxycarbonylamino-1H-benzoimidazol-5-yl ester] it was 800 nM; in that of `COC(=O)Nc1nc2cc(OS(=O)(=O)c3ccc(OCC(=O)N4CCCC4)cc3)ccc2[nH]1` [Example 65, 4-(2-oxo-2-pyrrolidin-1-yl-ethoxy)-benzenesulfonic acid 2-methoxycarbonylamino-1H-benzoimidazol-5-yl-ester], 1000 nM.
Consider `COc1cc(Nc2nc3cc(OS(=O)(=O)c4ccc(NC5CCCC5)cc4)ccc3[nH]2)cc(C(F)(F)F)c1` [Example 70-f, 4-Cyclopentylamino-benzenesulfonic acid 2-(3-methoxy-5-trifluoromethyl-phenylamino)-1H-benzoimidazol-5-yl ester], for which the IC50 against CDK2/CyclinE stood at 5000 nM.
